Columns and labels:
D816V Kit = molecular target: T1, D816V Kit (Homo sapiens, UniProt P10721, D816V); assay: Kit D816V assay at Km (Caliper electrophoretic mobility shift); type: biochemical; details: 15 uM ATP, 25 C, 90 minutes
T1 construct: purchased Carna Bioscience 08-156
Protocol: In order to assess the activity of chemical compounds against the relevant kinase of interest, the Caliper LifeSciences electrophoretic mobility shift technology platform is used. Fluorescently labeled substrate peptide is incubated in the presence of kinase and ATP so that a […] proportion of the peptide is phosphorylated. At the end of the reaction, the mix of phosphorylated (product) and non-phosphorylated (substrate) peptides are passed through the microfluidic system of the Caliper EZ Reader 2, under an applied potential difference. The presence of the phosphate group on the product peptide provides a difference in mass and charge between those of the substrate peptide, resulting in a separation of the substrate and product pools in the sample. As the pools pass a LEDS within the instrument, these pools are detected and resolved as separate peaks. The ratio between these peaks therefore reflects the activity of the chemical matter at that concentration in that well, under those conditions.
The reaction was stopped by the addition of 70 ul of Stop buffer (100 mM HEPES pH 7.5, 0.015% Brij 35, 35 mM EDTA and 0.2% of Coating Reagent 3 (Caliper Lifesciences)). The plate was then read on a Caliper EZReader 2 (protocol settings: −1.9 psi, upstream voltage −700, downstream voltage −3000, post sample sip 35 s).

[1] = molecular target: T2, Kit D816V (HMC1.2 cells, Kit V560G and D816V) (Homo sapiens, UniProt P10721, D816V/V560G); assay: HMC1.2 autophosphorylation assay (AlphaLISA, phospho-Y719 c-Kit); type: cell-based; details: Kit autophosphorylation at tyrosine 719, 90 minutes, read-out: Cellular Activity
T2 construct: endogenous in cells; host or cells: HMC1.2 cells
Protocol: HMC1.2 Autophosphorylation Assay:
10,000 HMC1.2 cells were incubated in 22 ul culture media (phenol-red free IMDM, no serum) in each well of a 384-well plate and serum starved overnight in a tissue culture incubator (5% CO2, 37° C.). A 10-point dose concentration series of compound (25 uM-95.4 pM) were then added to the cells in a volume of 3.1 ul to each well (0.25% DMSO final concentration). After 90 minutes, 6 ul of 5× AlphaLISA Lysis Buffer (Perkin Elmer) supplemented with a protease and phosphatase inhibitor cocktail (Cell Signaling Technologies) was added to each well and shaken at 450 rpm for 15 minutes at 4° C. 10 ul of phospho-Y719 c-Kit and total c-Kit antibodies (15 nM final concentration, Cell Signaling Technologies) and 50 ug/ml AlphaLISA rabbit acceptor beads (Perkin Elmer) were added to each well and shaken at 300 rpm at room temperature for 2 hours. 10 ul of 100 ug/ml streptavidin donor beads (Perkin Elmer) were added to each well, blocked from light with aluminum adhesive and shaken at 300 rpm at room temperature for 2 hours. Fluorescence signal was obtained on Envision (Perkin Elmer) by AlphaScreen 384 well HTS protocol.
This cell line contains Kit mutated at positions V560G and D816V resulting in constitutive activation of the kinase. The following compounds were tested in an assay to measure direct inhibition of Kit D816V kinase activity by assaying Kit autophosphorylation at tyrosine 719 on the Kit protein.

T1 sequence (P10721 26-976 D816V): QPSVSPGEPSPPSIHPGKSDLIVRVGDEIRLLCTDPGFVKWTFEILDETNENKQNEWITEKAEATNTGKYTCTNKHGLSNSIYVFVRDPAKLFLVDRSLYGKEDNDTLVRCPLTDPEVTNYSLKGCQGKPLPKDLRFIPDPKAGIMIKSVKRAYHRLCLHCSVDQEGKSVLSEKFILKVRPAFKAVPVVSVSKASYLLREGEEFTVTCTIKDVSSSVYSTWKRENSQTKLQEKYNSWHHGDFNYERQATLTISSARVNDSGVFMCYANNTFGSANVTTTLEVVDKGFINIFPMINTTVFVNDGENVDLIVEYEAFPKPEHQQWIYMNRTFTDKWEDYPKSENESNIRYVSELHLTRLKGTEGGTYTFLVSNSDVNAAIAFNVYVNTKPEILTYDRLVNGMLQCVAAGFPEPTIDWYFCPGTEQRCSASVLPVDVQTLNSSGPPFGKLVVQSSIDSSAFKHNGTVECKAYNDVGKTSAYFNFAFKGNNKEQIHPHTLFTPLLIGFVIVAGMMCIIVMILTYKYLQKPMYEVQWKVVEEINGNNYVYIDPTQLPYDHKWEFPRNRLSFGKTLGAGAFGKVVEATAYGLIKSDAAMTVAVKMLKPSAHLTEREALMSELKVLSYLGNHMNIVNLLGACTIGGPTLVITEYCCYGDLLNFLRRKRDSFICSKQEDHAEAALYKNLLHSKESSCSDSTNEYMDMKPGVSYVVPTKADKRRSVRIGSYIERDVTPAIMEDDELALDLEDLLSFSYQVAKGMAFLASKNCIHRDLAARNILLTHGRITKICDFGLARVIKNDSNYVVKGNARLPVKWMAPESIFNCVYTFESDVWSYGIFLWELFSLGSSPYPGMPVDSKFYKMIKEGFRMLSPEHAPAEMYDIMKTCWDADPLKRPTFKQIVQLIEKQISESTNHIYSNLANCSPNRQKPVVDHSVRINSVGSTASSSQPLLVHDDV
T2 sequence (P10721 26-976 V560G/D816V): as the sequence (P10721 26-976 D816V) above, with V535G counted along it

| SMILES | IC50 (D816V Kit) [nM] | IC50 [1] [nM] |
| --- | --- | --- |
| C[C@](N)(c1ccc(F)cc1)c1cnc(N2CCN(c3ncnc(Nc4ccccc4)n3)CC2)nc1 [Compound 29] | < 1 | 10 to 100 |
| CC(C)(O)Cn1cc(Nc2ncnc(N3CCN(c4ncc([C@@](C)(O)c5ccc(F)cc5)cn4)CC3)n2)cn1 [Compound 208] | < 1 | < 10 |
| Nc1nc(N2CCN(c3ncnc(Nc4ccc(N5CCC[C@@H](O)C5)cc4)n3)CC2)ncc1Cc1ccccc1 [Compound 231] | < 1 | 10 to 100 |
| CC(C)(O)c1ccc(Nc2ncnc(N3CCN(c4ncc([C@@](C)(N)c5ccc(F)cc5)cn4)CC3)n2)cc1 [Compound 193] | < 1 | < 10 |
| CC(C)(c1ccccc1)c1cnc(N2CCN(c3ncnc(Nc4ccc([C@H](O)CO)cc4)n3)CC2)nc1 [Compound 119] | < 1 | < 10 |
| Cc1c(Nc2ncnc(N3CCN(c4ncc(Sc5ccc(F)cc5)cn4)CC3)n2)cnn1C[C@@H]1CNCCO1 [Compound 273] | 1.01 to 10 | 10 to 100 |
| C[C@](N)(c1ccc(F)cc1)c1cnc(N2CCN(c3ncnc(Nc4ccc([C@@H](O)CO)cc4)n3)CC2)nc1 [Compound 195] | < 1 | < 10 |
| CC(C)(O)Cn1cc(Nc2ncnc(N3CCN(c4ncc([C@](C)(O)c5ccc(F)cc5)cn4)CC3)n2)cn1 [Compound 207] | < 1 | 10 to 100 |
| c1nc(Nc2cnn(CC3CNCCO3)c2)nc(N2CCN(c3ncc(C4CC4)cn3)CC2)n1 (stereo not drawn) [Compound 19] | 10 to 100 | > 10000 |
| c1ccc(Nc2cnc(N3CCN(c4ncnc(Nc5cnn(C[C@@H]6CNCCO6)c5)n4)CC3)nc2)cc1 [Compound 135] | 1.01 to 10 | 10 to 100 |
| Cc1c(Nc2ncnc(N3CCN(c4ncc(Sc5ccccc5F)cn4)CC3)n2)cnn1C[C@H](C)O [Compound 154] | 1.01 to 10 | 10 to 100 |
| Nc1nc(N2CCN(c3ncnc(Nc4cnc5c(c4)CNCC5)n3)CC2)ncc1Cc1ccccc1 [Compound 78] | < 1 | 10 to 100 |
| c1ccc(OCc2cnc(N3CCN(c4ncnc(Nc5cnn(C[C@@H]6CNCCO6)c5)n4)CC3)nc2)cc1 [Compound 190] | 1.01 to 10 | 10 to 100 |
| Fc1ccc(Cc2cnc(N3CCN(c4ncnc(Nc5cnn(C[C@@H]6CNCCO6)c5)n4)CC3)nc2)cc1 [Compound 196] | < 1 | 10 to 100 |
| Fc1ccccc1Oc1cnc(N2CCN(c3ncnc(Nc4cnn(C[C@@H]5CNCCO5)c4)n3)CC2)nc1 [Compound 203, (S)-4-(4-(5-(2-fluorophenoxyl)pyrimidin-2-yl)piperazin-1-yl)-N-(1-(morpholin-2-ylmethyl)-1H-pyrazol-4-yl)-1,3,5-triazin-2-amine] | 1.01 to 10 | 10 to 100 |
| C[C@@](O)(c1ccccc1)c1cnc(N2CCN(c3ncnc(Nc4ccc(N5CCOCC5)cc4)n3)CC2)nc1 [Compound 234] | 1.01 to 10 | 10 to 100 |
| OC[C@@H](O)c1ccc(Nc2ncnc(N3CCN(c4ncc(Cc5ccc(F)cc5)cn4)CC3)n2)cc1 [Compound 92] | < 1 | 10 to 100 |
| c1cnc(N2CCN(c3ncnc(Nc4ccc5c(c4)CNCC5)n3)CC2)nc1 [Compound 2] | 1.01 to 10 | 1000 to 10000 |
| Cn1cc(Nc2ncnc(N3CCN(c4ncc([C@](C)(O)c5ccc(F)cc5)cn4)CC3)n2)cn1 [Compound 39] | < 1 | 10 to 100 |
| CC(C)(c1ccccc1)c1cnc(N2CCN(c3ncnc(Nc4cnn(C[C@@H]5CNCCO5)c4)n3)CC2)nc1 [Compound 244] | < 1 | 10 to 100 |
| Fc1ccc(Nc2cnc(N3CCN(c4ncnc(Nc5cnn(C[C@@H]6CNCCO6)c5)n4)CC3)nc2)cc1 [Compound 200] | 1.01 to 10 | 100 to 1000 |
| Cc1c(Nc2ncnc(N3CCN(c4ncc(Cc5ccccc5F)cn4)CC3)n2)cnn1C[C@@H]1CNCCO1 [Compound 272] | < 1 | 10 to 100 |
| Fc1ccc(Sc2ncc(N3CCN(c4ncnc(Nc5cnn(C[C@@H]6CNCCO6)c5)n4)CC3)nn2)cc1 [Compound 258] | 1.01 to 10 | 10 to 100 |
| Cc1c(Nc2ncnc(N3CCN(c4ncc(Cc5ccccc5)c(N)n4)CC3)n2)cnn1C[C@@H]1CNCCO1 [Compound 245] | < 1 | 10 to 100 |
| c1ccc(Sc2cnc(N3CCN(c4ncnc(Nc5cnn(C[C@@H]6CNCCO6)c5)n4)CC3)nc2)cc1 [Compound 199] | 1.01 to 10 | 10 to 100 |
| O[C@@H](c1ccccc1)c1cnc(N2CCN(c3ncnc(Nc4cnn(CC5CNCCO5)c4)n3)CC2)nc1 (stereo partly drawn) [Compound 189, (S)-(2-(4-(4-(1-(morpholin-2-ylmethyl)-1H-pyrazol-4-ylamino)-1,3,5-triazin-2-yl)piperazin-1-yl)pyrimidin-5-yl)(phenyl)methanol] | < 1 | 10 to 100 |
| [2H]C([2H])(c1ccccc1)c1cnc(N2CCN(c3ncnc(Nc4cnn(C[C@@H]5CNCCO5)c4)n3)CC2)nc1 [Compound 141] | 1.01 to 10 | 10 to 100 |
| c1cnc(N2CCN(c3ncnc(Nc4cnn(C[C@@H]5CNCCO5)c4)n3)CC2)nc1 [Compound 6] | > 100 | > 10000 |
| CC(C)(c1ccccc1)c1cnc(N2CCN(c3ncnc(Nc4ccc([C@@H](O)CO)cc4)n3)CC2)nc1 [Compound 120] | < 1 | 10 to 100 |

Continued, values first:

| IC50 (D816V Kit) [nM] | IC50 [1] [nM] | SMILES |
| --- | --- | --- |
| 1.01 to 10 | 10 to 100 | c1cncc(Cc2cnc(N3CCN(c4ncnc(Nc5ccc6c(c5)CNCC6)n4)CC3)nc2)c1 [Compound 45] |
| 1.01 to 10 | 10 to 100 | CC1(Cn2cc(Nc3ncnc(N4CCN(c5ncc(Cc6ccccc6)cn5)CC4)n3)cn2)COC1 [Compound 87] |
| 1.01 to 10 | 10 to 100 | CN1CCNC[C@@H]1Cn1cc(Nc2ncnc(N3CCN(c4ncc(Cc5ccccc5)cn4)CC3)n2)cn1 [Compound 177] |
| < 1 | 10 to 100 | c1ccc(Cc2cnc(N3CCN(c4ncnc(Nc5cnn(C6COC6)c5)n4)CC3)nc2)cc1 [Compound 28] |
| 1.01 to 10 | 10 to 100 | O[C@@H]1CCN(c2ccc(Nc3ncnc(N4CCN(c5ncc(Cc6ccccc6)cn5)CC4)n3)cc2)C1 [Compound 111] |
| 1.01 to 10 | 10 to 100 | Fc1cccc(Cc2cnc(N3CCN(c4ncnc(Nc5ccc6c(c5)CNCC6)n4)CC3)nc2)c1F [Compound 137] |
| < 1 | < 10 | Nc1nc(N2CCN(c3ncnc(Nc4ccc5c(c4)CN(CCO)CC5)n3)CC2)ncc1Cc1ccccc1 [Compound 229] |
| < 1 | 10 to 100 | c1ccc(Cc2cnc(N3CCN(c4ncnc(Nc5cnn(C[C@@H]6COCCO6)c5)n4)CC3)nc2)cc1 [Compound 134] |
| < 1 | 10 to 100 | C[C@H](O)CNc1ccc(Nc2ncnc(N3CCN(c4ncc(Cc5ccccc5)cn4)CC3)n2)cc1 [Compound 81] |
| < 1 | 10 to 100 | CC(C)(O)Cn1cc(Nc2ncnc(N3CCN(c4ncc(Cc5ccccc5)cn4)CC3)n2)cn1 [Compound 62] |
| < 1 | 10 to 100 | CC1(C(O)c2ccc(Nc3ncnc(N4CCN(c5ncc(Cc6ccccc6)cn5)CC4)n3)cc2)COC1 (stereo not drawn) [Compound 172] |
| < 1 | 10 to 100 | CC(C)(O)CN1CCc2ccc(Nc3ncnc(N4CCN(c5ncc(Cc6ccccc6)cn5)CC4)n3)cc2C1 [Compound 262] |
| 1.01 to 10 | 10 to 100 | CN(C)S(=O)(=O)Cc1ccc(Nc2ncnc(N3CCN(c4ncc(Cc5ccccc5)cn4)CC3)n2)cc1 [Compound 252] |
| 1.01 to 10 | 10 to 100 | CN1CCNC[C@H]1Cn1cc(Nc2ncnc(N3CCN(c4ncc(Cc5ccccc5)cn4)CC3)n2)cn1 [Compound 176] |
| 1.01 to 10 | 10 to 100 | c1ccc(Cc2cnc(N3CCN(c4ncnc(Nc5ccc(O[C@H]6CCCNC6)nc5)n4)CC3)nc2)cc1 [Compound 171] |
| 1.01 to 10 | 1000 to 10000 | COc1cc(N2CCNCC2)ccc1Nc1ncnc(N2CCN(c3ncc(Cc4ccccc4)cn3)CC2)n1 [Compound 230] |

— patent US9334263B2, “Compositions useful for treating disorders related to kit” (BLUEPRINT MEDICINES CORPORATION, priority 2013, dated 2016)
